Laboratory results published in patent US20090054376A1, “BENZOFURAN DERIVATIVES WITH THERAPEUTIC ACTIVITIES” (Pharmos Corporation, priority 2005, published 2009).
Read-outs that look alike come from different tables or passages of the source.

Tests used:
[1] = tested on: visceral pain writhing responses; experiment: Visceral pain, acetic acid induced writhing responses; format: in vivo, Male ICR mice; conditions: Mus musculus, iv, single dose 2 mg/kg i.v., compared to untreated group; read-out: Percent Inhibition of Visceral Pain Writhing Responses
Protocol: Male ICR mice (average body weight 25 g, Harlan, Israel) were pretreated by i.v. injection at volume dose of 5 ml/kg of vehicle, control and test compounds at various doses. Other routes of administration were tested for selected compounds including i.m. or s.c. injections at volume dose of 2.5 ml/kg and p.o. gavage at volume dose of 5 ml/kg. Compounds were dissolved in CREMOPHOR®:Ethanol and diluted 1:20 in saline prior to injection or gavage. Compounds administered i.v. were injected fifteen minutes before pain induction, whereas compounds administered i.m., s.c. or p.o. were supplied thirty minutes before pain induction, unless otherwise indicated. Each treatment group, except for controls comprising at least 30 animals, was composed of at least 6 animals. Fifteen or thirty minutes after drug administration, depending on the route of administration, the mice were injected i.p. with 10 ml/kg of 0.6% acetic acid and the number of visceral pain related behaviors (writhing movements globally defined as WR, i.e. stretching, contractions of the abdomen accompanied by an elongation of the body and extension of the hind limbs) was counted over a period of 5 minutes, starting 5 minutes after the acetic acid administration. These visceral pain related behaviors were globally defined as writhing responses (WR). The results are expressed as mean number of writhing responses ±SEM. Data were analyzed using analysis of variance (ANOVA) followed by post-hoc Fisher test.

[2] = target: T1, Human CB2 Receptor (Homo sapiens, UniProt P34972); experiment: [35S]GTPγS-binding assay, hCB2; format: biochemical; conditions: for selectivity toward CB2: GTPγS agonism, CB2 versus CB1; for EC50 / Emax / agonistic activity toward cannabinoid receptors (in words): GTPγS; for EC50 / Emax: Human CB2 Receptor, NB = no binding; for Emax: upper plateau of curve; for agonistic activity toward cannabinoid receptors (in words): hCB1 and hCB2
T1 construct: host or cells: Sf9 or HEK-293 cells (membranes)
T1 sequence (P34972 whole entry): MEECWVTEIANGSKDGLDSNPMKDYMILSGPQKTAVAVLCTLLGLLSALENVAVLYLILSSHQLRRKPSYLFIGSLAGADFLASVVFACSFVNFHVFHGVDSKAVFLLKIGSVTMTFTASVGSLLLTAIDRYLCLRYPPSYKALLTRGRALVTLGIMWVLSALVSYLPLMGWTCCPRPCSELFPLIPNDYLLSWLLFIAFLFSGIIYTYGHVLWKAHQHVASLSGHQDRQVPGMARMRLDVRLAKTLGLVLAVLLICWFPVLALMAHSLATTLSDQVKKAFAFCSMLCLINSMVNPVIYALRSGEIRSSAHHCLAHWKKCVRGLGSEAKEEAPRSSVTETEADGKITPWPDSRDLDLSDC
Protocol: (§1) Functional activity of compounds of the invention toward the cannabinoid receptors was determined by stimulation of [^35S]-GTPγS binding using membranes from HEK-293 cells expressing the hCB1 receptor and membranes expressing the hCB2 receptor derived from either Sf9 (PerkinElmer) or from HEK-293 cells. Activities were compared to that of the known cannabinoid full agonist CP55940 (Alexis). The purpose of this experiment is to determine the potency of the compounds of the invention as agonists or antagonists toward each of the receptor tested.
(§2) [^35S]-GTPγS binding reactions were performed at 30° C. in 96-well plates containing 5-10 μg membrane protein suspended in 0.1 ml binding buffer [20 mM HEPES-NaOH, pH 7.4, 5 mM MgCl2, 100 mM NaCl, 0.2% (w/v) bovine serum albumin] supplemented with 50 μM GDP and 0.06 nM-10 μM of the compound being tested. Binding was initiated by the addition of [^35S]GTPγS (0.3 nM final concentration). Incubations were performed for 90 minutes and were terminated by filtration on GF/C filter plates (PerkinEimer). Filters were washed ten times with ice-cold wash buffer (20 mM HEPES-NaOH, pH 7.4, 10 mM sodium pyrophosphate). Non-specific binding was measured in the presence of 15 μM GTPγS.
(§3) Assays were performed in duplicates. Data was analyzed by plotting on the X axis the log concentration against percent of specific [^35S]GTPγS binding out of basal [^35S]GTPγS binding on the Y axis, non-linear regression is then performed using GraphPad Prism, version 3.0 (GraphPad, San Diego, Calif.) to calculate the EC50 and Emax of the compound. The EC50 value represents the concentration at which there is 50% [^35S]GTPγS binding and the Emax value the upper plateau of the curve.

[3] = target: T2, Human CB1 Receptor (Homo sapiens, UniProt P21554); experiment: [35S]GTPγS-binding assay, hCB1; format: biochemical; conditions: NB = no binding; for Emax: upper plateau of curve
T2 construct: expressed in transfected cells; host or cells: HEK-293 cells (membranes)
T2 sequence (P21554 whole entry): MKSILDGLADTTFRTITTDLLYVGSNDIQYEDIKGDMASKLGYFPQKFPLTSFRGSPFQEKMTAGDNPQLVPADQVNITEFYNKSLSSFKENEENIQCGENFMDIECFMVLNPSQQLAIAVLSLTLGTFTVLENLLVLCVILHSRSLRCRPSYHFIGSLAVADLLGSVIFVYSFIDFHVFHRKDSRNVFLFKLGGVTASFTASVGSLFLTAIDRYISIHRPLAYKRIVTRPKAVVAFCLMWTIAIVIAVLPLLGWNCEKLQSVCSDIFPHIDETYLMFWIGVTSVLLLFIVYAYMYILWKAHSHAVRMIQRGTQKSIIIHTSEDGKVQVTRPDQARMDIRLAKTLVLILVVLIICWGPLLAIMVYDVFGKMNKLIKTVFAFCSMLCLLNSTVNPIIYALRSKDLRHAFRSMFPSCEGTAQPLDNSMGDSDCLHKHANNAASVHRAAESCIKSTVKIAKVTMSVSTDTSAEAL
Protocol: as §1, §2, §3

[4] = tested on: iNOS; experiment: Gene expression in LPS activated RAW 264.7 macrophages, iNOS; format: cell-based, mouse; conditions: RAW 264.7, 10 μM, LPS 1 μg/ml, RNA 3 hrs after activation, vs vehicle treated activated cells
Protocol: (§4) RAW 264.7 macrophages, a mouse cell line (ATCC # TIB 71), were grown in Dulbecco's modified Eagle's medium (DMEM) with 4 mM L-glutamine adjusted to contain 1.5 g/L sodium bicarbonate, 4.5 g/L glucose, and 10% heat inactivated fetal bovine serum. Cells were grown in tissue culture flasks and seeded at appropriate density into 6 wells tissue culture plates. Four million Raw cells in half a milliliter were stimulated with 1 μg/ml LPS E. coli 055:B5 (DIFCO Laboratories). The mouse macrophages were pre-treated for one hour with controls or 10 μM of test compounds, and later on activated with LPS. RNA samples were extracted from the cells 3 hrs after activation and gene expression levels were analyzed by real-time RT-PCR. In parallel, supernatants were collected and secretion of inflammatory mediators was analyzed using ELISA techniques according to the instructions of the kit manufacturer.
(§5) Total RNA is prepared using SV total RNA isolation system (Promega). The cells were homogenized in lysis buffer. The lysates were transferred to an RNA isolation column, treated with DNAse, washed and eluted according to kit instructions. RNA concentrations were determined using GeneQuant II (Pharmacia-Amersham). Complementary DNA (cDNA) was synthesized from total RNA using […] II reverse transcriptase (Life Technologies). 2 μg of total RNA were combined with an oligo (dT)15 primer, 0.5 mM dNTP mix, 8 units of reverse transcriptase and other reaction components up to a final volume of 20 μl, according to the kit instructions. The reaction mixture was incubated at 42° C. for 45 min and inactivated at 70° C. for 15 minutes. Quantitative real-time RT-PCR included 1 μl of the cDNA, 300 nM of the appropriate forward and reverse primers (according to the gene monitored) and 7.5 μl of the reaction mix containing buffer, nucleotides, Taq polymerase and SYBER green (SYBER Green master mix, Applied Biosystems), in a total reaction volume of 15 μl. Gene amplification was obtained using the GeneAmp 5700 sequence detection system (Applied Biosystems). Amplification included one stage of 10 minutes at 95° C. followed by 40 cycles of a 2-steps loop: 20 seconds at 95° C., and 1 minute at 60° C. During each annealing step, the amount of the amplified product was measured by the fluorescence of the double strand DNA binding dye, SYBER Green. The cycle of threshold (CT), representing the PCR cycle at which an increase in fluorescence above a baseline signal can be first detected, was determined for each product. A delay of one PCR cycle in the CT is translated into a two-fold decrease in starting template molecules and vice versa. The changes in the CT of the specific gene product were normalized to the changes in the CT of housekeeping cyclophilin or GAPDH as reference genes. Results were expressed as fold increase of gene expression in treated or untreated activated cells above the resting cells, after normalization to cyclophilin or GAPDH. Cells were also tested for viability to confirm that any effect on gene expression was indeed due to modulation of transcription of a specific target and not to cytoxicity.
(§6) Results were further expressed as percent inhibition of gene expression in compound treated activated cells over vehicle “treated” activated cells. Since the modulation of IL-10 and TNF-α gene expression by the compounds of the invention is relatively minor, it is not reported. […] Inhibition above 50% was considered significant.

[5] = tested on: carrageenan induced inflammatory pain and paw edema; experiment: Inflammatory pain and paw edema induced by carrageenan; format: in vivo, Male Sprague Dawley rats; conditions: Rattus norvegicus, ip, 3 hours; for inhibition in vivo at 3 mg/kg: 3 mg/kg i.p. (one asterisk)
Protocol: Male Sprague Dawley rats (average body weight 200 g, Harlan, Israel) were transiently sedated by placement on dry ice for the duration of the injections. Rats were injected subcutaneously, in the subplantar region of one (right) paw with 0.1 ml of 2% w/v λ Carrageenan in sterile saline. […] Test compounds were, unless otherwise stated, administered i.p. at initial single dose of 3, 10 or 20 mg/kg, and volume dose of 5 ml/kg, immediately after the carrageenan injection. Selected compounds were also tested p.o. following oral gavage. Vehicle and celecoxib treated animals were used as controls. Each treatment group comprised at least seven animals.
Before induction of inflammatory pain and three hours after injection, the animals reactions to pain stimuli were tested in two systems. The first stimulus was thermal and assessed by the Plantar Test according to Hargreaves, using Ugo Basile Model 7370. The scale was set to an intensity of 50 arbitrary units. The latency time till the animal lift a paw as a reaction to the thermal stimulus was recorded for both the inflamed and non-inflamed hind paws. The second stimulus was mechanical (tactile) and assessed using a Dynamic Plantar Sesthesiomether (Ugo Basile Model 73400-002). […] Finally, the impact on paw edema was assessed. Paw thickness was measured using a dial thickness gauge (Spring-dial, constant low pressure gauge, Mitutoyo, TG/L-1, 0.01 mm) and paw volume was measured using a plethysmometer (model #7150, Ugo Basile, Italy). At the end of the study, animals were euthanized.
The results are measured as the differences between the two hind paws at time 0 and 3 hours both as ALT, for the latency time in the thermal part of the study, and as ΔForce, for the mechanical part of the study. The paw volume is expressed as percent from vehicle treated animals. Results are expressed as mean±SEM for each treatment group and the differences among those groups are analyzed by analysis of variance (ANOVA) followed by post-hoc Tukey's test.
Results refer to i.p. treatment with 10 mg/kg. Results marked with one asterisk refer to a dose 3 mg/kg, whereas two asterisks refer to 20 mg/kg. Celecoxib is included as reference.

[6] = tested on: IL-1β; experiment: Gene expression in LPS activated RAW 264.7 macrophages, IL-1β; format: cell-based, mouse; conditions: RAW 264.7, 10 μM, LPS 1 μg/ml, RNA 3 hrs after activation, vs vehicle treated activated cells
Protocol: as §4, §5, §6

[7] = tested on: MCP-1; experiment: Gene expression in LPS activated RAW 264.7 macrophages, MCP-1; format: cell-based, mouse; conditions: RAW 264.7, 10 μM, LPS 1 μg/ml, RNA 3 hrs after activation, vs vehicle treated activated cells
Protocol: as §4, §5, §6

Row | SMILES | inhibition in vivo at 2 mg/kg [1] | selectivity toward CB2 [2] | EC50 [2] | Emax [2] | agonistic activity toward cannabinoid receptors (in words) [2] | EC50 [3] | Emax [3] | Percent inhibition of gene expression, iNOS [4] | inhibition in vivo at 20 mg/kg ([5]; 20 mg/kg i.p. (two asterisks), reduction in paw swelling, read-out: Percent Inhibition of Inflammatory Pain Responses, Edema) | Percent inhibition of gene expression, IL-1β [6] | Percent inhibition of gene expression, MCP-1 [7] | inhibition in vivo at 3 mg/kg ([5]; mechanical stimulus, read-out: Percent Inhibition of Inflammatory Pain Responses, ΔForce) | inhibition in vivo at 3 mg/kg ([5]; reduction in paw swelling, read-out: Percent Inhibition of Inflammatory Pain Responses, Edema) | inhibition in vivo at 3 mg/kg ([5]; thermal stimulus, read-out: Percent Inhibition of Inflammatory Pain Responses, ΔLT)
1 | CCCCCCC(C)(C)c1cc(OC(=O)C=CC(=O)O)c2c(c1)OC1C(I)CCCCC21 (stereo not drawn) [Compound C7S-28, But-2-enedioic acid mono-[2-(1,1-dimethylheptyl)-9-iodo-5,6,7,8,9,9a-hexahydro-4bH-10-oxa-benzo[α]azulen-4-yl]ester] | 56% | about 10 fold | 16 nM | 44% | agonists toward both receptors with some degree of selectivity toward the CB2 receptor | 217 nM | 118% |  |  |  |  |  |  | 
2 | CCCCCCC(C)(C)c1cc(O)c2c(c1)OC1C(O)CCCCC21 (single isomer, unassigned) [Compound C7S-29, 2-(,1-dimethylheptyl)-5,6,7,8,9,9a-hexahydro-4bH-10-oxa-benzo[α]azulen-4,9-diol] | > 90% | non-selective agonist | 54 nM | 60% | agonists toward both receptors with some degree of selectivity toward the CB2 receptor | 79 nM | 41% |  |  |  |  |  |  | 
3 | CCCCCCC(C)(C)c1cc(O)c2c(c1)OC1CCCCC21 (centres unmarked) [Compound C6S-1, 3-(1,1-Dimethylheptyl)-5a,6,7,8,9,9a-hexahydro-dibenzofuran-1-ol] | 39% |  |  |  |  |  |  | NO (NO indicates that the compound tested did not significantly affect the transcription of the gene assessed and that its activity is comparable to vehicle, within ±20% from this control) | 48% | NO (NO indicates that the compound tested did not significantly affect the transcription of the gene assessed and that its activity is comparable to vehicle, within ±20% from this control) | 66% |  |  | 
4 | CCCCCCC(C)(C)c1cc(O)c2c(c1)OC1CC(C)(C)CCC21 (centres unmarked) [Compound C6S-17, 3-(1,1-dimethylheptyl)-7,7-dimethyl-5a,6,7,8,9,9a-hexahydro-dibenzofuran-1-ol] | 38% |  | 4 nM | 43% | agonists specific toward the CB2 receptor | 2880 nM | -25% |  |  |  |  | 37% | 44% | 60%
5 | CCCCCCC(C)(C)c1cc(O)c2c(c1)OC1C(I)CCCCC21 (stereo not drawn) [Compound C7S-26, 2-(1,1-Dimethylheptyl)-9-iodo-5,6,7,8,9,9a-hexahydro-4bH-10-oxa-benzo[α]azulen-4-ol] | 26% | about 285 fold | 0.07 nM | 38% | agonists toward both receptors with some degree of selectivity toward the CB2 receptor | 20 nM | 155% |  |  |  |  |  |  | 
